Measured values from ChEMBL document CHEMBL1150520, “Analogs of UK 14,304: Structural features responsible for 2 adrenoceptor activity” (Bioorg Med Chem Lett, 1995).

How the values were obtained:
[1] = target: T1, Adrenergic receptor alpha-2 (Homo sapiens, UniProt P08913+P18825+P18089); test: Binding affinity for Alpha-2 adrenergic receptor of CHO-C10 membrane preparation; set-up: species or system Cricetulus griseus
T1 sequence (P08913 whole entry): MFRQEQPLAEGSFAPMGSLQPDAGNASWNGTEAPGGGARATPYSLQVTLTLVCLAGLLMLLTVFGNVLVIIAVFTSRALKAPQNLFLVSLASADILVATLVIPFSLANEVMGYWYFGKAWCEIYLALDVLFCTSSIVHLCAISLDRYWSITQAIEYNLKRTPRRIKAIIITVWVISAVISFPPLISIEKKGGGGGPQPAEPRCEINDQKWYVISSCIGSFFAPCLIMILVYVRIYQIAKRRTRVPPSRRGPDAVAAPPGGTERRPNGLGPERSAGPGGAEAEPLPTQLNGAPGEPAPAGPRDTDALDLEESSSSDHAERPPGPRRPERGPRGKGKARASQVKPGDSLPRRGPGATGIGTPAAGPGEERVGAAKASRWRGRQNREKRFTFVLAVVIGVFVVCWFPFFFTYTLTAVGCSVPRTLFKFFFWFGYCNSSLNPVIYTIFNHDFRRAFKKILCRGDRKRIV
T1 sequence (P18825 whole entry): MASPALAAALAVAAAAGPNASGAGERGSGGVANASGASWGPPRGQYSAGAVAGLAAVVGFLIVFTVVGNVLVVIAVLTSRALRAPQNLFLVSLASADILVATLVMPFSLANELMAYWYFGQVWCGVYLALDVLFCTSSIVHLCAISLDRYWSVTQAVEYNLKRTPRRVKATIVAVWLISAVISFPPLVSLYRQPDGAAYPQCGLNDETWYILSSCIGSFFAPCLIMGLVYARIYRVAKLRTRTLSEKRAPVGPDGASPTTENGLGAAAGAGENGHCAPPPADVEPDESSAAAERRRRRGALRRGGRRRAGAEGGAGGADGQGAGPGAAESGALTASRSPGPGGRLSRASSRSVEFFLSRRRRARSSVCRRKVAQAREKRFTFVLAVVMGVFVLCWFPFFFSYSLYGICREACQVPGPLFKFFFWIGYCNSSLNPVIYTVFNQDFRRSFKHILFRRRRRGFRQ
T1 sequence (P18089 whole entry): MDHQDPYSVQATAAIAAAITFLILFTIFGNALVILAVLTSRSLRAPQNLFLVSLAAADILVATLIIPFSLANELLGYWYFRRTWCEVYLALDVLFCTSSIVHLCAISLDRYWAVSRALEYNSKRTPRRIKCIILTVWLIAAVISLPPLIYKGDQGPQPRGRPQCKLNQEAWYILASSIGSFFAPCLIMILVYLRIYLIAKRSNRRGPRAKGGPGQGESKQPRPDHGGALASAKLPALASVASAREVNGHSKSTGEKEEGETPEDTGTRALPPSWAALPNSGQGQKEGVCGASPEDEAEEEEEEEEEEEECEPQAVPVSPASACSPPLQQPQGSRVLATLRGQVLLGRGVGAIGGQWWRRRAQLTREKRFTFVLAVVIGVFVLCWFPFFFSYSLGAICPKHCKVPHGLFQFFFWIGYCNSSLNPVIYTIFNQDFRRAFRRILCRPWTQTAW

[2] = target: T2, Adrenergic receptor alpha-1 (Homo sapiens, UniProt P35348+P25100+P35368); test: Binding affinity for Alpha-1 adrenergic receptor of human cerebral cortex membrane; format: tissue-based
T2 sequence (P35348 whole entry): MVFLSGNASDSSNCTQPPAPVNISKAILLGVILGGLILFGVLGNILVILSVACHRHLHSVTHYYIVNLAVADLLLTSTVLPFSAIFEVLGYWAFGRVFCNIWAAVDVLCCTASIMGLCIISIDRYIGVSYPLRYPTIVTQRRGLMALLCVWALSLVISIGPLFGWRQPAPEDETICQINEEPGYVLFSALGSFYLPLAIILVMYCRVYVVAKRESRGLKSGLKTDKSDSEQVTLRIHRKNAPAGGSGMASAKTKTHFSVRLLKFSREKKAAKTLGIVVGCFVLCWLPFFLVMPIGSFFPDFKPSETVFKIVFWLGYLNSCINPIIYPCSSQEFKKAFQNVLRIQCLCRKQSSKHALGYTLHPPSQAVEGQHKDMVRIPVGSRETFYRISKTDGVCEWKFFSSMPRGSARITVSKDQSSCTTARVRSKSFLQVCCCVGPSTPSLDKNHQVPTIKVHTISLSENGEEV
T2 sequence (P25100 whole entry): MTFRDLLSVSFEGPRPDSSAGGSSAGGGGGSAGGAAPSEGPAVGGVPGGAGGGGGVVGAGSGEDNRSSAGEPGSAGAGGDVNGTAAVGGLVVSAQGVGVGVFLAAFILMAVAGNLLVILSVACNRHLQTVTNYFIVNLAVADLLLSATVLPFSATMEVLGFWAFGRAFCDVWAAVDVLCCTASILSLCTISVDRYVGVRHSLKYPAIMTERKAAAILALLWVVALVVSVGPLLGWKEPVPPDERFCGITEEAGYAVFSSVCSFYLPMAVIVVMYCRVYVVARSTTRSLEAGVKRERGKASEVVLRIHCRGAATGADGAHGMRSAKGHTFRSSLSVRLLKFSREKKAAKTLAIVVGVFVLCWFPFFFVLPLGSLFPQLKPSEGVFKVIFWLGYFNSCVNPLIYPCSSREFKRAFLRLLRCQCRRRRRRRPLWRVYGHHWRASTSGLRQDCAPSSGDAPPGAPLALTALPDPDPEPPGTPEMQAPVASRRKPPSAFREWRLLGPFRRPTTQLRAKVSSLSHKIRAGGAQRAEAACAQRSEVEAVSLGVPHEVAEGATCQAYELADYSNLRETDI
T2 sequence (P35368 whole entry): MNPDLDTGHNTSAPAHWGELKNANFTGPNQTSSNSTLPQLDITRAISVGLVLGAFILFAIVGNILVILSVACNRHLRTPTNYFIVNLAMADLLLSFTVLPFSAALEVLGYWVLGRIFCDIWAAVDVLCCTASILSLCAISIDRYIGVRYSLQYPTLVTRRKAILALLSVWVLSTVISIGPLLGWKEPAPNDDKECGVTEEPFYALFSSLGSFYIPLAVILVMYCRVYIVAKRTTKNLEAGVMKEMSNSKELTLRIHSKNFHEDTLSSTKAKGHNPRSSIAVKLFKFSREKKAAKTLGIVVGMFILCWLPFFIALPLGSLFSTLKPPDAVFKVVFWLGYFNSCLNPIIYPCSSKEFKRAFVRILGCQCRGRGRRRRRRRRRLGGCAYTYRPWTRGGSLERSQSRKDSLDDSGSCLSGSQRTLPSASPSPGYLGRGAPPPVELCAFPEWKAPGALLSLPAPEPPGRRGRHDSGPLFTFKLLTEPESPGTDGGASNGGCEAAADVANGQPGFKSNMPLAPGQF

| Compound | Ki [1] [nM] | Ki [2] [nM] |
| --- | --- | --- |
| Cc1c(NC2=NCCN2)ccc2c1OCCO2 | 0.25 | 130 |
| COc1ccc(NC2=NCCN2)c(C)c1OC | 5.2 | 1500 |
| Cc1ccccc1N=C1NCCN1 | 7.8 | 2500 |
| C/N=C(\NC)Nc1ccc2nccnc2c1Br | 5300 | 10000 |
| c1cnc2cc(NC3=NCCN3)ccc2n1 | 41 | – |
| Cc1c(NC2=NCCN2)ccc2c1NCCO2 | 1.2 | – |
| Cc1c(NC2=NCCN2)ccc2c1NCCN2 | 9.6 | 8900 |
| c1cc2c(cc1NC1=NCCN1)OCCO2 | – | 2400 |
| N=C(N)Nc1ccc2nccnc2c1Br | 41 | 17000 |
| CN(C1=NCCN1)c1ccc2c(c1)OCCO2 | 180 | 30000 |
